Experimental data: patent US20260274894A1, “CYCLIC POLYPEPTIDE COMPOUND AND USE THEREOF” (BIVISION PHARMACEUTICALS, INC., priority 2023, published 2026)
Numbered stars: 1 amine (or outer) side, 2 acyl side, 3 side chain; on linkers, the order of the positions; unused ones are H or OH. Bridge positions count the residues as written; N and C are the ends. Square brackets hold non-standard residues; d marks the D form. Side chains are listed from the residue outwards. Peptide text beside a SMILES is read from it. * marks the point of attachment. ξ: configuration not given here. NH(CH2)2O(CH2)2NHDOTA = O=C(O)CN1CCN(CC(=O)O)CCN(CC(=O)NCCOCCN*)CCN(CC(=O)O)CC1; X4 = O=C(O)CN1CCN(CC(=O)O)CCN(CC(=O)N2CCc3cc(C(=O)*)ccc3C2)CCN(CC(=O)O)CC1; NH(CH2)5NHDOTA = O=C(O)CN1CCN(CC(=O)O)CCN(CC(=O)NCCCCCN*)CCN(CC(=O)O)CC1; Azetidine3carboxylic = O=C(C1CN([*:1])C1)[*:2]; mXylylene = c1cc(C[*:1])cc(C[*:2])c1; Ethylenediamine = C(CN[*:2])N[*:1]; CH2CH2 = C(C[*:2])[*:1]; Hexanoyl = CCCCCC(=O)*; CO = O=C([*:1])[*:2]; ξP = O=C(O)C1CCCN1; ξC = NC(CS)C(=O)O; NHBu = CCCCN*

Target: T1, FAP protein (Homo sapiens, UniProt Q12884)
T1 construct: purchased Sinobiological
T1 sequence (Q12884 1-760): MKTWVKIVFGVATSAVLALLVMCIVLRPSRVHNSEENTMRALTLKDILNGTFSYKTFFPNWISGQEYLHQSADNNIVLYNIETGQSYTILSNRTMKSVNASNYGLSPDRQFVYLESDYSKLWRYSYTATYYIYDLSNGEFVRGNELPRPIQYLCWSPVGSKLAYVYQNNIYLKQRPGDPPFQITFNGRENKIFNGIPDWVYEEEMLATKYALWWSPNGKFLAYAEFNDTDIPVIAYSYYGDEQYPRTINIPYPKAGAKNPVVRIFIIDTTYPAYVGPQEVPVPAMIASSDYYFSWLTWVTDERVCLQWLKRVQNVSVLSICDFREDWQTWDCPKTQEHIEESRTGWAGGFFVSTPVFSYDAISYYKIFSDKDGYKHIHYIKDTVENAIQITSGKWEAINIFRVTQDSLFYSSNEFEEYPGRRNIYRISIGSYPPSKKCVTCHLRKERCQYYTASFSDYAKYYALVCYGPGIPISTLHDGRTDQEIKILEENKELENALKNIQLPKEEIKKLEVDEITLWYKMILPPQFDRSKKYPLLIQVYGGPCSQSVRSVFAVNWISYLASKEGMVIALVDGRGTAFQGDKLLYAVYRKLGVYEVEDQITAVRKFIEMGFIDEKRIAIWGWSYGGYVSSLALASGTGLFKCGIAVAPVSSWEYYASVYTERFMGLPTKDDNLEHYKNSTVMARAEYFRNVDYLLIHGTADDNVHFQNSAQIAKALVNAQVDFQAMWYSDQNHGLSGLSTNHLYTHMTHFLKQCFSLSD
Test: Biacore test of compound affinity to FAP protein
Settings: Biacore 8K, SA chip, 15° C., 1:1 binding model; read-out: pKD (FAP) (converted)
Experimental: The Biacore 8K (Cytiva) instrument was used to detect ligand binding of the FAP protein (Sinobiological). FAP protein was captured on the SA chip. […] The sensor surface was conditioned by injecting 1M NaCl three consecutive times in 50 mM NaOH. After each ligand injection, additional cleaning was performed using isopropanol in 1M NaCl and 50 mM NaOH (flow path 1 and 2, flow rate of 10 μL/min, injection time of 60 s). […] The analyte was run under the following conditions: analysis temperature of 15° C., analysis step=all set to LMW kinetics; cycle type=single cycle (contact time of 90 s, dissociation time of 1800 s, flow rate of 30 μL/min, flow channels 1 and 2); channel detection=2-1. Data was evaluated using the Biacore Insight Evaluation Software, and the data were fitted to a 1:1 binding model. The Biacore results are shown in Table 2 below: pKD=−Log KD, where KD is the binding affinity of the compound to the FAP protein as measured by Biacore.

Kd	SMILES
10 to 100 nM	CCCCNC(=O)N[C@H]1CSCc2cccc(c2)CSCC(C(=O)N[C@@H](CCC(=O)NCCNC(=O)c2ccc3c(c2)CCN(C(=O)CN2CCN(CC(=O)O)CCN(CC(=O)O)CCN(CC(=O)O)CC2)C3)C(=O)O)NC(=O)[C@H](Cc2ccccc2)NC(=O)[C@H](CCC(N)=O)NC(=O)[C@H]([C@@H](C)O)NC(=O)C2CCCN2C(=O)C2CN(C2)C1=O (stereo partly drawn) [JHDC26, nBu-urea-[Cys(3MeBn)-hhy39-Pro-Thr-Gln-Phe-Cys]-Glu-(EDA-hhy02-DOTA)-OH] ({NHBu-CO}-C[Azetidine3carboxylic][ξP]TQF[ξC]E([Ethylenediamine-X4])-OH; linker 1-7 via mXylylene)
10 to 100 nM	CCCCCC(=O)N[C@H]1CSCCSCC(C(=O)N[C@@H](CCC(=O)NCCOCCNC(=O)CN2CCN(CC(=O)O)CCN(CC(=O)O)CCN(CC(=O)O)CC2)C(=O)O)NC(=O)[C@H](Cc2ccccc2)NC(=O)[C@H](CCC(N)=O)NC(=O)[C@H]([C@@H](C)O)NC(=O)C2CCCN2C(=O)C2CN(C2)C1=O (stereo partly drawn) [JHDC27, Hex[Cys(ethylene)-hhy39-Pro-Thr-Gln-Phe-Cys]-Glu-(DAPEG2-DOTA)-OH] (Hexanoyl-C[Azetidine3carboxylic][ξP]TQF[ξC]E(NH(CH2)2O(CH2)2NHDOTA)-OH; linker 1-7 via CH2CH2)
10 to 100 nM	CCCCNC(=O)N[C@H]1CSCc2cccc(c2)CSCC(C(=O)N[C@@H](CCC(=O)NCCCCCNC(=O)CN2CCN(CC(=O)O)CCN(CC(=O)O)CCN(CC(=O)O)CC2)C(=O)O)NC(=O)[C@H](Cc2ccccc2)NC(=O)[C@H](CCC(N)=O)NC(=O)[C@H]([C@@H](C)O)NC(=O)C2CCCN2C(=O)C2CN(C2)C1=O (stereo partly drawn) [JHDC28, nBu-urea-[Cys(3MeBn)-hhy39-Pro-Thr-Gln-Phe-Cys]-Glu-(PDA-DOTA)-OH] ({NHBu-CO}-C[Azetidine3carboxylic][ξP]TQF[ξC]E(NH(CH2)5NHDOTA)-OH; linker 1-7 via mXylylene)
10 to 100 nM	CCCCCC(=O)N[C@H]1CSCc2cccc(c2)CSCC(C(=O)N[C@@H](CCC(=O)NCCCCCNC(=O)CN2CCN(CC(=O)O)CCN(CC(=O)O)CCN(CC(=O)O)CC2)C(=O)O)NC(=O)[C@H](Cc2ccccc2)NC(=O)[C@H](CCC(N)=O)NC(=O)[C@H]([C@@H](C)O)NC(=O)C2CCCN2C(=O)C2CN(C2)C1=O (stereo partly drawn) [JHDC29, Hex[Cys(3MeBn)-hhy39-Pro-Thr-Gln-Phe-Cys]-Glu-(PDA-DOTA)-OH] (Hexanoyl-C[Azetidine3carboxylic][ξP]TQF[ξC]E(NH(CH2)5NHDOTA)-OH; linker 1-7 via mXylylene)
10 to 100 nM	CCCCCC(=O)N[C@H]1CSSCC(C(=O)N[C@@H](CCC(=O)NCCOCCNC(=O)CN2CCN(CC(=O)O)CCN(CC(=O)O)CCN(CC(=O)O)CC2)C(=O)O)NC(=O)[C@H](Cc2ccccc2)NC(=O)[C@H](CCC(N)=O)NC(=O)[C@H]([C@@H](C)O)NC(=O)C2CCCN2C(=O)C2CN(C2)C1=O (stereo partly drawn) [JHDC30, Hex[Cys(SS)-hhy39-Pro-Thr-Gln-Phe-Cys]-Glu-(DAPEG2-DOTA)-OH] (Hexanoyl-C[Azetidine3carboxylic][ξP]TQF[ξC]E(NH(CH2)2O(CH2)2NHDOTA)-OH; disulfide 1-7)
10 to 100 nM	CCCCNC(=O)N[C@H]1CSSCC(C(=O)N[C@@H](CCC(=O)NCCOCCNC(=O)CN2CCN(CC(=O)O)CCN(CC(=O)O)CCN(CC(=O)O)CC2)C(=O)O)NC(=O)[C@H](Cc2ccccc2)NC(=O)[C@H](CCC(N)=O)NC(=O)[C@H]([C@@H](C)O)NC(=O)C2CCCN2C(=O)C2CN(C2)C1=O (stereo partly drawn) [JHDC31, nBu-urea-[Cys(SS)-hhy39-Pro-Thr-Gln-Phe-Cys]-Glu-(DAPEG2-DOTA)-OH] ({NHBu-CO}-C[Azetidine3carboxylic][ξP]TQF[ξC]E(NH(CH2)2O(CH2)2NHDOTA)-OH; disulfide 1-7)
